# Where “and” joins values, the source holds several entries; their conditions need not be identical. Equal entries are not always repeated. Structures can show the parent of a compound that is named as a salt. Where two headings read alike, the source gives them in different places.
# Experiments:
# [1] = system: LTB4-mediated CD11b upregulation on human neutrophils; experiment: LTB4-mediated CD11b upregulation on human neutrophils (flow cytometry, anti-CD11b-FITC); type: cell-based
# Description: The following Assay method was used to evaluate the effects of 3 compounds for LTB4-mediated CD11b upregulation on human neutrophils:
# Note: The Assay procedure described herein was modeled after a previously published method(viz., Prostaglandins, Leukot, Essent. Fatty Acids. 46:265-270. 1992, Biochem. Pharmacol. 49:1683-1690. 1995), the disclosure of which is incorporated herein by reference.
# Approximately 1-2 mg of each compound was weighed and diluted to 1 mM in neat dimethyl sulphoxide (DMSO). These stocks were then diluted (using “doubling” dilutions) in assay buffer.
# The assay buffer used throughout the studies consisted of Hanks Balanced Salts Solution (HBSS) with added 0.5% bovine serum albumin, low endotoxin (ICN Biomedicals Catalog #16-980-49). After dissolving the BSA in the HBSS, the buffer was membrane-filtered (0.2 μ) before use.
# Human blood was drawn into 3×10 ml EDTA-K3 Vacutainer tubes, which were pooled and mixed in a 50 ml, blue cap polypropylene tube. Three ml portions of Mono-Poly Resolving medium (MPRM; ICN #16-980-49) were dispensed into 4 separate 13×100 glass disposable tubes. An additional 0.3 ml of PBS (phosphate buffered saline) was added to each tube and mixed with the MPRM by vigorous vortexing. Exactly 3.5 ml of the blood was carefully layered on top of the four MPRM-water mixtures. The tubes were gradually accelerated to 400×g and spun at this speed for 30 min at room temperature. Tubes were removed from the centrifuge and both the plasma and top cell (mononuclear) layers were removed and discarded. The second layer of cells was carefully collected, pooled and washed with assay buffer. The collected neutrophil cell preparation was then spun at 400×g for 5 min and re-washed once again. The cells were resuspended in assay buffer and counted using a Cell-Dyn 1600 cell counter (Abbott Diagnostics Co.). They were then resuspended in buffer at 9×10^6 cells/ml and held briefly for addition in a later step of the assay.
# LTB4, (Biomol; ETOH stock @148.5 μM) was diluted to a 3.9 μM stock in assay buffer by dilution of 10 μl ETOH stock+371 μl assay buffer, mixed well and further diluted 1:100 (100 μl+9.9 ml buffer) to make a use stock of 39 nm in buffer for later use. The final concentration of LTB4 (3 nM) was determined after several experimental runs.
# Exactly 10 μl of each putative compound/dilution and 10 μl of anti-CD11b-FITC (FITC=Fluorescein Isothiocyanate; Biosource Intl., #AHS1148) was carefully added to the bottom of 12×75 mm polypropylene tubes (Falcon #2063) as determined by the experimental design. Following this, 100 μl of the human neutrophil preparation (9E6/ml) was added and mixed well by vortexing. The compound/cell mixtures were incubated together for 15 minutes at room temperature. Following this incubation, 10 μl of diluted LTB4 stock was added (to make 3 nM final LTB4 concentration), mixed by vortexing and incubated in a 37° C. shaking water bath for 30 min. Following this the tubes were immediately placed on ice for 10 minutes. Following this 1 ml of diluted BD FACS Lyse (Becton Dickinson Fluorescense Activated Cell Sorting Lyse) was added to the tubes and vortexed. 10 minutes later the tubes were spun at 400×g at room temperature. After centrifugation, the tubes were aspirated and re-suspended in 1.0 ml of 1% paraformaldehyde solution.
# The samples were then analyzed for fluorescence intensity (linear scale) using an EPICS XL flow cytometer and the “Mo-1 Isolated Neutrophil” protocol.
# The mean fluorescence intensity (MFI) for each sample was computed using WinList software and expressed as percentage of maximum MFI.Microsoft Excel and further graphed and analyzed using linear regression.
# [2] = Homo sapiens, Neutrophil, isolated human neutrophils, 3 nM LTB4, semicolons separate individual assay determinations, read-out: CD11b/CD18 IC50
# [3] = isolated human neutrophils, 3 nM LTB4, semicolons separate individual assay determinations, read-out: CD11b/CD18 IC50
# [4] = Homo sapiens, Neutrophil, read-out: CD11b/CD18 IC50 (nM), isolated human neutrophils, 3 nM LTB4, semicolons separate individual assay determinations
# [5] = read-out: CD11b/CD18 IC50, isolated human neutrophils, 3 nM LTB4, semicolons separate individual assay determinations, sodium salt
SMILES,"IC50 [1, 2] [nM]","IC50 [1, 3]",also measured
"CCCc1c(OCCCOc2cc(O)c(C3CCOC3)cc2CC)cccc1Oc1ccccc1C(=O)[O-].[Na+] (stereo not shown) (hydrate or solvate) [Example 15, 2-(3-{3-[2-Ethyl-5-hydroxy-4-(tetrahydrofuran-3-yl)phenoxy]propoxy}-2-propylphenoxy)benzoic acid sodium salt hemihydrate]",–,–,melting point: 67 to 71 °C
"CCCc1c(OCCCOc2cc(O)c(-c3ccsc3)cc2CC)cccc1Oc1ccccc1C(=O)O (hydrate or solvate) [Example 17, 2-{3-[3-(2-Ethyl-5-hydroxy-4-thiophen-3-yl-phenoxy)propoxy]-2-propyl-phenoxy}benzoic acid hydrate]",–,–,melting point: 90 to 95 °C (dec.)
"CCCc1c(OCCCOc2cc(O)c(-c3ccc(F)cc3)cc2CC)cccc1Oc1ccccc1C(=O)O [Compound A, reference compound]",–,–,"IC50 ([1]; Homo sapiens, Neutrophil, comparison compounds, isolated human neutrophils, 3 nM LTB4, A = average of 3 tests, read-out: IC-50 (nM) ± SEM): 1.7 ± 0.25 nM"
"CCCc1c(OCCCOc2cc(O)c(-c3ccc(F)cc3)cc2CC)cccc1Oc1ccccc1C#N [Compound B, reference compound]",–,–,"IC-50 (nM) ± SEM ([1]; comparison compounds, isolated human neutrophils, 3 nM LTB4, A = average of 3 tests): not active"
"CCCc1c(OCCCOc2cc(O)c(-c3ccn[nH]3)cc2CC)cccc1Oc1ccccc1C(=O)O [Example 4, 2-(3-{3-[2-Ethyl-5-hydroxy-4-(2H-pyrazol-3-yl)phenoxy]propoxy}-2-propyl-phenoxy)benzoic acid]",74,117 nM,–
"CCCc1c(OCCCOc2cc(O)c(-c3ccno3)cc2CC)cccc1Oc1ccccc1C(=O)O [Example 5, 2-{3-[3-(2-ethyl-5-hydroxy-4-isoxazol-5-yl-phenoxy)propoxy]-2-propylphenoxy}benzoic acid]",175,223 nM,–
"CCCc1c(OCCCOc2cc(O)c(-c3cccs3)cc2CC)cccc1Oc1ccccc1C(=O)O [Example 9, 2-{3-[3-(2-Ethyl-5-hydroxy-4-thiophen-2-yl-phenoxy)propoxy]-2-propyl-phenoxy}benzoic acid sodium salt]",–,–,"IC50 [1, 4]: 23 nM; IC50 [1, 5]: 20 nM"
"CCCc1c(OCCCOc2cc(O)c(-c3cnn(C)c3)cc2CC)cccc1Oc1ccccc1C(=O)O [Example 10, 2-(3-{3-[2-ethyl-5-hydroxy-4-(1-methyl-1H-pyrazol-4-yl)-phenoxy]propoxy}-2-propylphenoxy)benzoic acid]",–,14 nM and 4.4 nM and 8.3 nM,–
"CCCc1c(OCCCOc2cc(O)c(-c3c(C)noc3C)cc2CC)cccc1Oc1ccccc1C(=O)O [Example 12, 2-(3-{3-[4-(3,5-Dimethylisoxazol-4-yl)-2-ethyl-5-hydroxyphenoxy]propoxy}-2-propylphenoxy)benzoic acid sodium salt]",–,–,"IC50 [1, 4]: 10000 nM; IC50 [1, 5]: 5700 nM"
"CCCc1c(OCCCOc2cc(O)c(-c3ccco3)cc2CC)cccc1Oc1ccccc1C(=O)O [Example 13, 2-{3-[3-(2-Ethyl-4-furan-2-yl-5-hydroxyphenoxy)propoxy]-2-propylphenoxy}-benzoic acid sodium salt]",–,–,"IC50 [1, 4]: 39 nM; IC50 [1, 5]: 54 nM"
CCCc1c(OCCCOc2cc(O)c(-c3ccoc3)cc2CC)cccc1Oc1ccccc1C(=O)O [Example 14],31,30 nM,–
"CCCc1c(OCCCOc2cc(O)c(C3CCOC3)cc2CC)cccc1Oc1ccccc1C(=O)O (stereo not shown) [Example 15, 2-(3-{3-[2-Ethyl-5-hydroxy-4-(tetrahydrofuran-3-yl)phenoxy]propoxy}-2-propylphenoxy)benzoic acid sodium salt hemihydrate]",–,–,"IC50 [1, 4]: 27 nM"
"CCCc1c(OCCCOc2cc(O)c(C3CCCN3)cc2CC)cccc1Oc1ccccc1C(=O)O (stereo not shown) [Example 16, 2-{3-[3-(2-Ethyl-5-hydroxy-4-pyrrolidin-2-yl-phenoxy)propoxy]-2-propyl-phenoxy}benzoic acid hydrochloride hydrate]",1080,–,"IC50 ([1]; isolated human neutrophils, 3 nM LTB4, semicolons separate individual assay determinations, hydrochloride hydrate, read-out: CD11b/CD18 IC50): 837 nM"
"CCCc1c(OCCCOc2cc(O)c(-c3ccsc3)cc2CC)cccc1Oc1ccccc1C(=O)O [Example 17, 2-{3-[3-(2-Ethyl-5-hydroxy-4-thiophen-3-yl-phenoxy)propoxy]-2-propyl-phenoxy}benzoic acid hydrate]",11,–,"IC50 ([1]; isolated human neutrophils, 3 nM LTB4, semicolons separate individual assay determinations, hydrate, read-out: CD11b/CD18 IC50): 5.6 nM and 8 nM"

# Second part, led by results:
"IC50 [1, 2] [nM]","IC50 [1, 3]",SMILES,also measured
480,–,"CCCc1c(OCCCOc2cc(O)c(-c3cocn3)cc2CC)cccc1Oc1ccccc1C(=O)O [Example 1, 2-{3-[3-(2-Ethyl-5-hydroxy-4-oxazol-4-yl-phenoxy)propoxy]-2-propyl-phenoxy}benzoic acid]",–
5880,–,"CCCc1c(OCCCOc2cc(O)c(-c3cnc[nH]3)cc2CC)cccc1Oc1ccccc1C(=O)O [Example 2, 2-(3-{3-[2-Ethyl-5-hydroxy-4-(3H-imidazol-4-yl)phenoxy]propoxy}-2-propyl-phenoxy)benzoic acid hydrochloride]",–
353,339 nM,"CCCc1c(OCCCOc2cc(O)c(-c3cscn3)cc2CC)cccc1Oc1ccccc1C(=O)O [Example 3, 2-{3-[3-(2-Ethyl-5-hydroxy-4-thiazol-4-yl-phenoxy)propoxy]-2-propyl-phenoxy}benzoic acid]",–
260,–,CCCc1c(OCCCOc2cc(O)c(-c3cnn[nH]3)cc2CC)cccc1Oc1ccccc1C(=O)O [Example 6],–
2020,3790 nM,"CCCc1c(OCCCOc2cc(O)c(-n3cccc3)cc2CC)cccc1Oc1ccccc1C(=O)OC [Example 7, 2-{3-[3-(2-ethyl-5-hydroxy-4-pyrrol-1-yl-phenoxy)propoxy]-2-propyl-phenoxy}benzoic acid methyl ester]",–
> 50000,–,"CCCc1c(OCCCOc2cc(O)c(-c3nc(Br)ns3)cc2CC)cccc1Oc1ccccc1C(=O)O [Example 8, 2-(3-{3-[4-(3-bromo-[1,2,4]thiadiazol-5-yl)-2-ethyl-5-hydroxyphenoxy]propoxy}-2-propylphenoxy)benzoic acid]",–
–,620 nM and 2560 nM and 1010 nM,"CCCc1c(OCCCOc2cc(O)c(-c3nccs3)cc2CC)cccc1Oc1ccccc1C(=O)O [Example 11, 2-{3-[3-(2-Ethyl-5-hydroxy-4-thiazol-2-yl-phenoxy)propoxy]-2-propyl-phenoxy}benzoic acid]",–

# Source: US6797723B1, “Heterocycle substituted diphenyl leukotriene antagonists” (Eli Lilly and Company, priority 1999, dated 2004)
